In ChEMBL document CHEMBL5614459, “Conformationally Constrained Isoquinolinones as Orally Efficacious Hepatitis B Capsid Assembly Modulators” (ACS Med Chem Lett, 2024):

Tests used:
[1] = Intrinsic clearance in mouse liver microsomes; type: ADME, Microsome; settings: read-out: CLH
[2] = Intrinsic clearance in human liver microsomes; type: ADME, Microsome; settings: read-out: CLH
[3] = test system: Hepatitis B virus; assay: Antiviral activity against Hepatitis B virus genotype D infected in HepDE19 cells assessed as inhibition of viral replication by measuring decrease in intracellular rcDNA level by bDNA assay; type: functional, organism-based
[4] = Cytotoxicity against human HepDE19 cells by CellTiter-Glo assay; type: toxicity, cell-based
[5] = Selectivity index, ratio of CC50 for cytotoxicity against human HepDE19 cells to EC50 for antiviral activity against Hepatitis B virus genotype D infected in HepDE19 cells; type: toxicity, cell-based; settings: read-out: Ratio CC50/EC50
[6] = AUC(last) in CD-1 mouse at 10 mg/kg, po; type: ADME, organism-based; settings: in vivo
[7] = Cmax in CD-1 mouse at 10 mg/kg, po; type: ADME, organism-based; settings: in vivo
[8] = Drug uptake in CD-1 mouse liver at 10 mg/kg, po or 2 mg/kg, iv measured after 24 hrs; type: ADME, organism-based; settings: read-out: Drug uptake
[9] = Half life in CD-1 mouse at 10 mg/kg, po; type: ADME, organism-based; settings: in vivo
[10] = target: Cytochrome P450 3A4 (Homo sapiens, UniProt P08684); assay: Inhibition of CYP3A4 (unknown origin); type: ADME
Sequence of Cytochrome P450 3A4 (P08684 whole entry): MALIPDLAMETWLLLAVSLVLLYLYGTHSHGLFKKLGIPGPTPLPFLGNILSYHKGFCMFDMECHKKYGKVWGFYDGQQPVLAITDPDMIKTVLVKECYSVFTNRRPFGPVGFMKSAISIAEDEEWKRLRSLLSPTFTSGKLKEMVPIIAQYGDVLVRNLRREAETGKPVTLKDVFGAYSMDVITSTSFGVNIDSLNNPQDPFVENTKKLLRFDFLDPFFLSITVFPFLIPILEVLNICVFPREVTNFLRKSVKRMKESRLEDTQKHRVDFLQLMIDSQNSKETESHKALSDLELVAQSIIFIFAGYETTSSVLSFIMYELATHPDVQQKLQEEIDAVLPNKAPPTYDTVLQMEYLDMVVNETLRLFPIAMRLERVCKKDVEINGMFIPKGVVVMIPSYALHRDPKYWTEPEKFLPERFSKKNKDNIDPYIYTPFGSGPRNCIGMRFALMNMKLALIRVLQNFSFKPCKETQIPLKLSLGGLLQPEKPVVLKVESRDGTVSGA

[11] = target: Cytochrome P450 2C19 (Homo sapiens, UniProt P33261); assay: Inhibition of CYP2C19 (unknown origin); type: ADME
Sequence of Cytochrome P450 2C19 (P33261 whole entry): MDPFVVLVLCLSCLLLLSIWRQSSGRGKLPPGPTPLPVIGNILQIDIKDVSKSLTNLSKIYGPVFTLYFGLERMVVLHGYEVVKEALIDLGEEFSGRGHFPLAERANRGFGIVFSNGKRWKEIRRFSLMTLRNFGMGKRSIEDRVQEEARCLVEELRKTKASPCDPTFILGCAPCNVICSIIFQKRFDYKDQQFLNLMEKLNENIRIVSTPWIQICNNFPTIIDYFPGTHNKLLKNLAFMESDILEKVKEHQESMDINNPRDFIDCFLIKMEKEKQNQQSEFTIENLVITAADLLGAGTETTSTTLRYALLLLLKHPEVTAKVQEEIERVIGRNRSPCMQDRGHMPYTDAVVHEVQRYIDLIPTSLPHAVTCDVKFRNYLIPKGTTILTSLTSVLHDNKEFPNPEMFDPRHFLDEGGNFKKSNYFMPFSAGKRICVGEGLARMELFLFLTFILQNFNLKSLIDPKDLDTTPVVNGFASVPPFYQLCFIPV

[12] = target: Cytochrome P450 2D6 (Homo sapiens, UniProt P10635); assay: Inhibition of CYP2D6 (unknown origin); type: ADME
Sequence of Cytochrome P450 2D6 (P10635 whole entry): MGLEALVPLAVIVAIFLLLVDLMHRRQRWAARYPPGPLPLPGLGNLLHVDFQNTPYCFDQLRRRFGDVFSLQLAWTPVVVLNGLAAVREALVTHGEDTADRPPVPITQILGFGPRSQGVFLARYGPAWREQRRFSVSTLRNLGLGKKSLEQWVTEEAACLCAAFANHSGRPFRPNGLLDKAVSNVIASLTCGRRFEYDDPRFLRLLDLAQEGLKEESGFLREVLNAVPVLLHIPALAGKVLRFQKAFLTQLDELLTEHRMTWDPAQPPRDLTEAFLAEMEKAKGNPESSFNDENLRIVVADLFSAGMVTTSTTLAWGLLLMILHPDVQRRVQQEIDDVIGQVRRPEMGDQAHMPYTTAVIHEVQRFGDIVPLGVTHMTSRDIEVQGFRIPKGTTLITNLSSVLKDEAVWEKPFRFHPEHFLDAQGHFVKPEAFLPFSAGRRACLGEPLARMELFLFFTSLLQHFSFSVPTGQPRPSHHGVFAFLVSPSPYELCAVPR

[13] = target: T1, Cytochrome P450 2B6 (Homo sapiens, UniProt P20813); assay: Inhibition of CYP2B6 (unknown origin); type: ADME
T1 sequence (P20813 whole entry): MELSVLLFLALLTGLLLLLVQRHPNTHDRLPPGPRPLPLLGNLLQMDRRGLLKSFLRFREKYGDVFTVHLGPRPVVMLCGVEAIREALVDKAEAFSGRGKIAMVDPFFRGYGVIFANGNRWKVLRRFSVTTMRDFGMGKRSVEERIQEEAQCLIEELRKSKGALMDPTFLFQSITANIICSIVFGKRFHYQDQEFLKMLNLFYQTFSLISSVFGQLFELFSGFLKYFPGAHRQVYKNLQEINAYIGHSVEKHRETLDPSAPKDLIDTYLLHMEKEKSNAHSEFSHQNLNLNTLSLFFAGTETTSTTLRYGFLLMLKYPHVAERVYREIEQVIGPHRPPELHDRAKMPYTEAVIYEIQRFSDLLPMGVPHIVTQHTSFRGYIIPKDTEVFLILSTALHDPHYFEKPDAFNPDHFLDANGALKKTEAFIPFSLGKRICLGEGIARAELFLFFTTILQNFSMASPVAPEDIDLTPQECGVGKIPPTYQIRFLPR

[14] = target: Cytochrome P450 2C9 (Homo sapiens, UniProt P11712); assay: Inhibition of CYP2C9 (unknown origin); type: ADME
Sequence of Cytochrome P450 2C9 (P11712 whole entry): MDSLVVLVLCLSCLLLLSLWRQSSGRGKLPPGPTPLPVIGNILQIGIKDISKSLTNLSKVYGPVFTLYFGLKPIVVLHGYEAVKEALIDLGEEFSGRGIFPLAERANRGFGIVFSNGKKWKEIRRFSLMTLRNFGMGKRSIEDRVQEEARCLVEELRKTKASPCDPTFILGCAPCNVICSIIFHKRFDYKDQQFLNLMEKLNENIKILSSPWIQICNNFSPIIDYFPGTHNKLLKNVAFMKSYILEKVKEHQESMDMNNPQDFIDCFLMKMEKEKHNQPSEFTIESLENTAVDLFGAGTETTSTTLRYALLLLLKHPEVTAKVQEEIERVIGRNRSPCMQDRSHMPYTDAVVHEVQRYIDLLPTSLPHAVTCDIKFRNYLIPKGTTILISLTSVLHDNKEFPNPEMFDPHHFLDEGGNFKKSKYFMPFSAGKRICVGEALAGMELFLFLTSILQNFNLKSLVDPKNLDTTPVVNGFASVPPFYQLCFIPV

[15] = test system: Hepatitis B virus; assay: Antiviral activity against Hepatitis B virus genotype D harboring core protein-T33N mutant; type: functional, organism-based
[16] = test system: Hepatitis B virus; assay: Anti-viral activity against Hepatitis B virus infected in mouse assessed as log10 reduction of HBV DNA levels in serum at 10 mg/kg, po qd for 7 days; type: functional; settings: time 7 day
[17] = test system: Hepatitis B virus; assay: Anti-viral activity against Hepatitis B virus infected in mouse assessed as log10 reduction of HBV DNA levels in serum at 3 mg/kg, po qd for 7 days; type: functional; settings: time 7 day
[18] = Hepatitis B virus, genotype D, HepDE19

`CN(C(=O)c1cc2ccccc2[nH]1)[C@@H]1COCc2[nH]c(=O)c3cc(F)c(F)cc3c21` gave a microsomal CLint [1] of 70 µL/min/mg, a microsomal CLint [2] of 91 µL/min/mg and an EC50 [3, 18] of 9 nM. It also gave a CC50 [4] of over 10000 nM and a selectivity ratio [5] of over 1500.
With `CN(C(=O)c1cc2cc(F)ccc2[nH]1)[C@@H]1COCc2[nH]c(=O)c3cc(F)c(F)cc3c21` the microsomal CLint [1] was 48 µL/min/mg, the microsomal CLint [2] was 95 µL/min/mg and the EC50 [3, 18] was 4 nM. For the same molecule, the CC50 [4] was over 10000 nM and the selectivity ratio [5] was over 1500.
In the case of `CN(C(=O)c1cc2cc(F)c(F)c(F)c2[nH]1)[C@@H]1COCc2[nH]c(=O)c3cc(F)c(F)cc3c21`, the microsomal CLint [1] is reported as 20 µL/min/mg, the AUC(0-t) [6] is reported as 15900 ng·h/mL and the microsomal CLint [2] is reported as 31 µL/min/mg. It also gave an EC50 [3, 18] of 5 nM, a Cmax [7] of 1080 ng/mL and a CC50 [4] of over 10000 nM. For the same molecule, the concentration at 24 h [8] was 3230 ng/g, the half-life [9] was 10.8 h and the selectivity ratio [5] was over 1500.
With `CN(C(=O)Nc1ccc(F)c(Cl)c1)C1CCc2[nH]c(=O)c3ccccc3c21` (racemic) the EC50 [3, 18] was 87 nM, the CC50 [4] was over 10000 nM and the selectivity ratio [5] was over 1500.
`CN(C(=O)Nc1ccc(F)c(Cl)c1)C1CCCCc2[nH]c(=O)c3ccccc3c21` (racemic) showed an EC50 [3, 18] of 150 nM, a CC50 [4] of over 10000 nM and a selectivity ratio [5] of over 1500.
For `CN(C(=O)Nc1ccc(F)c(Cl)c1)C1CCCc2[nH]c(=O)c3cc(F)c(F)cc3c21` (stereo in doubt), the EC50 ([3]; hepde19) was 1030 nM.
With `CN(C(=O)Nc1ccc(F)c(Cl)c1)[C@@H]1CSCc2[nH]c(=O)c3cc(F)c(F)cc3c21` the microsomal CLint [1] was 112 µL/min/mg, the microsomal CLint [2] was 216 µL/min/mg and the EC50 [3, 18] was 21 nM. It also gave a CC50 [4] of over 10000 nM and a selectivity ratio [5] of over 1500.
With `CN(C(=O)Nc1ccc(F)c(Cl)c1)C1CCCc2[nH]c(=O)c3cc(F)c(F)cc3c21` (racemic) the EC50 ([3]; hepde19) was 19 nM and the CC50 [4] was over 10000 nM.
For `CN(C(=O)Nc1ccc(F)c(Cl)c1)C1CCCc2[nH]c(=O)c3cc(F)c(F)cc3c21` (stereo in doubt; 8), the IC50 [10] was under 10000 nM, the IC50 [11] was under 10000 nM and the EC50 ([3]; hepde19) was 12 nM. For the same molecule, the IC50 [12] was 4300 nM and the IC50 [13] was under 10000 nM.
`CN(C(=O)Nc1ccc(F)c(Cl)c1)[C@@H]1COCc2[nH]c(=O)c3cc(F)c(F)cc3c21` showed an IC50 [14] of over 15000 nM, a microsomal CLint [1] of 27 µL/min/mg and an EC50 [15] of 400 nM. For the same molecule, the AUC(0-t) [6] was 6990 ng·h/mL, the microsomal CLint [2] was 54 µL/min/mg and the IC50 [10] was over 15000 nM. The IC50 [11] was over 15000 nM, the EC50 [3, 18] was 7 nM and the Cmax [7] was 690 ng/mL. For the same molecule, the “log(activity)” value [16] was 2.86, the CC50 [4] was over 10000 nM and the concentration at 24 h [8] was 150 ng/g. The half-life [9] was 3.1 h, the “log(activity)” value [17] was 1.04 and the selectivity ratio [5] was over 1500. The IC50 [12] was over 15000 nM and the IC50 [13] was over 15000 nM.
With `CN(C(=O)Nc1ccc(F)c(C(F)F)c1)[C@@H]1COCc2[nH]c(=O)c3cc(F)c(F)cc3c21` the EC50 [15] was 227 nM, the AUC(0-t) [6] was 20800 ng·h/mL and the EC50 [3, 18] was 6 nM. The Cmax [7] was 2340 ng/mL, the “log(activity)” value [16] was 2.68 and the CC50 [4] was over 10000 nM. The concentration at 24 h [8] was 135 ng/g, the half-life [9] was 2.9 h and the “log(activity)” value [17] was 1.68. It also gave a selectivity ratio [5] of over 1500.
Molecule `CN(C(=O)Nc1ccc(F)c(Cl)c1)C1CCCc2[nH]c(=O)c3c(F)c(F)ccc3c21` (racemic) has an EC50 [3, 18] of 440 nM, a CC50 [4] of over 10000 nM and a selectivity ratio [5] of over 1500.
For `CN1Cc2[nH]c(=O)c3cc(F)c(F)cc3c2[C@H](N(C)C(=O)Nc2ccc(F)c(Cl)c2)C1`, the EC50 [3, 18] was 180 nM, the CC50 [4] was over 10000 nM and the selectivity ratio [5] was over 1500.
Work on `CN(C(=O)Nc1ccc(F)c(Cl)c1)C1CCCc2[nH]c(=O)c3cc(F)ccc3c21` (racemic) yielded an EC50 [3, 18] of 31 nM, a CC50 [4] of over 10000 nM and a selectivity ratio [5] of over 1500.
For `CN(C(=O)c1cc2cccc(F)c2[nH]1)C1COCc2[nH]c(=O)c3cc(F)c(F)cc3c21` (centres undefined), the microsomal CLint [1] was 57 µL/min/mg, the microsomal CLint [2] was 81 µL/min/mg and the EC50 [3, 18] was 11 nM. The CC50 [4] was over 10000 nM and the selectivity ratio [5] was over 1500.
